Measured values as given in ChEMBL document CHEMBL5053541, “Andrographolide derivative as antagonist of vitamin D receptor to induce lipidation of microtubule associate protein 1 light chain 3 (LC3)” (Bioorg Med Chem, 2021).
The source made the active and inactive calls. No cut-off for these calls is given here.

What was measured:
HeLa = assay: Cytotoxicity against human HeLa cells assessed as reduction in cell viability measured after 24 hrs by methylene blue staining based assay
[1] = target: T1, Vitamin D3 receptor (Homo sapiens) (UniProt P11473); assay: Antagonist activity against calcitriol-activated VDR signalling in human HeLa cells assessed as inhibition of VDR signalling incubated with calcitriol for 1 hr followed by compound addition and measured after 24 hrs by luciferase reporter gene assay; type: cell-based
T1 sequence (whole entry): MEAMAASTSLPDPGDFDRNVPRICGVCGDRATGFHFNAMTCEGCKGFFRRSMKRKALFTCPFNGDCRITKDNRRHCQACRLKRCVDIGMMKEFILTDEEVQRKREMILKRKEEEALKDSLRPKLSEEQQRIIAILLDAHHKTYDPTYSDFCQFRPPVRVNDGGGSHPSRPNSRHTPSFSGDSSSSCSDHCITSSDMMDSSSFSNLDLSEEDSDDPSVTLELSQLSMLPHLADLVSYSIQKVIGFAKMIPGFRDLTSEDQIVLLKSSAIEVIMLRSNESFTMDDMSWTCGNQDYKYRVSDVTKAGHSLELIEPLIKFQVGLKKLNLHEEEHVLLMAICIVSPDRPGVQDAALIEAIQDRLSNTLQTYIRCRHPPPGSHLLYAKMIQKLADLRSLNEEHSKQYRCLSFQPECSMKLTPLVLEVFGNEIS

[2] = target: T1, Vitamin D3 receptor (Homo sapiens); assay: Antagonist activity at VDR in human HeLa cells assessed as decrease in p62 expression at 10 uM in presence or absence of calcitriol measured after 4 hrs by western blot analysis; type: cell-based; details: filed as antagonist
[3] = target: Signal transducer and activator of transcription 3 (Homo sapiens) (UniProt P40763); assay: Inhibition of IFN-gamma stimulated STAT3 signalling in human HeLa cells incubated for 1 hr withIFN-gamma followed by compound addition and measured after 24 hrs by luciferase reporter gene assay; type: cell-based
[4] = target: T1, Vitamin D3 receptor (Homo sapiens); assay: Antagonist activity at VDR in human HeLa cells assessed as decrease in mTOR phosphorylation at Ser2448 residue at 10 uM in presence or absence of calcitriol measured after 4 hrs by western blot analysis; type: cell-based
[5] = target: T1, Vitamin D3 receptor (Homo sapiens); assay: Antagonist activity at VDR in human HeLa cells assessed as reduction in CYP27B1 mRNA expression at 10 uM in presence of calcitriol measured after 4 hrs by […]; type: cell-based
[6] = target: T1, Vitamin D3 receptor (Homo sapiens); assay: Antagonist activity at VDR in human HeLa cells assessed as increase in ratio of LC3-II to LC-I at 10 uM in presence or absence of calcitriol measured after 4 hrs by western blot analysis; type: cell-based; details: filed as antagonist
[7] = target: Nuclear factor NF-kappa-B complex (Homo sapiens) (UniProt Q00653+P19838+Q04206); assay: Inhibition of TNF-alpha induced NF-kappaB signalling in human HeLa cells incubated with TNF-alpha for 1 hr followed by compound addition and measured after 24 hrs by luciferase reporter gene assay; type: cell-based
[8] = target: T1, Vitamin D3 receptor (Homo sapiens); assay: Antagonist activity at VDR in human HeLa cells assessed as reduction in CYP27B1 mRNA expression at 10 uM measured after 4 hrs by […]; type: cell-based; details: filed as antagonist
SH-SY5Y [9] = assay: Neuroprotective activity against A53T SNCA-induced cytotoxicity in human SH-SY5Y cells assessed as decrease in A53T SNCA induced LDH release at 10 uM by LDH assay; type: functional, cell-based
N2a [10] = assay: Inhibition of lipid synthesis related gene expression in MPP+-induced mouse N2a cells assessed as reduction in Insig-1 gene expression measured after 6 hrs by qRT-PCR analysis; type: functional
N2a [11] = assay: Induction of autophagy in MPP+-induced mouse N2a cells infected with pAde-LC3-EGFP- mCherry assessed as formation of mCherry foci by measuring increased in red fluorescence at 10 uM measured after 4 hrs by Hoechst staining based confocal microscope analysis; type: functional, cell-based
N2a [12] = assay: Induction of autophagy in MPP+-induced mouse N2a cells transfected with Atg7 shRNA assessed as increase in LC3-II expression at 10 uM measured after 6 hrs by western blot analysis; type: functional, cell-based
N2a [13] = assay: Induction of autophagy in MPP+-induced mouse N2a cells expressing myc-VDR plasmid assessed as LC3 lipidation at 10 uM measured after 6 hrs by western blot analysis; type: functional, cell-based
N2a [14] = assay: Induction of autophagy in MPP+-induced mouse N2a cells assessed as increase in LC3-II expression at 10 uM measured after 6 hrs by western blot analysis; type: functional, cell-based
N2a [15] = assay: Inhibition of lipid synthesis related gene expression in MPP+-induced mouse N2a cells assessed as reduction in Scap gene expression measured after 6 hrs by qRT-PCR analysis; type: functional
N2a [16] = assay: Upregulation of SREBP2 cleavage in MPP+-induced mouse N2a cells assessed as increase in active form of phospho-SREBP2 level measured up to 6 hrs by western blot analysis; type: functional
N2a [17] = assay: Effect on SNCA oligomerization in mouse N2a cells transfected with Syn-luc1 and Syn-luc2 plasmids assessed as reduction in SNCA self-oligomerization by measuring luciferase activity at 10 to 20 uM measured after 6 hrs by bioluminescent protein-fragment complementation assay; type: functional, cell-based; details: dose 10-20 µM
N2a [18] = assay: Inhibition of lipid synthesis related gene expression in MPP+-induced mouse N2a cells assessed as reduction in ACACA gene expression measured after 6 hrs by qRT-PCR analysis; type: functional
N2a [19] = assay: Upregulation of SREBP2 cleavage in MPP+-induced mouse N2a cells assessed as increase in active cleaved form of SREBP2 level measured up to 6 hrs by western blot analysis; type: functional
N2a [20] = assay: Inhibition of lipid synthesis related gene expression in MPP+-induced mouse N2a cells assessed as reduction in Ldr gene expression measured after 6 hrs by qRT-PCR analysis; type: functional
SH-SY5Y [21] = assay: Neuroprotective activity against SNCA-induced neurotoxicity in human SH-SY5Y cells transfected with adenovirus expressing […] SNCA assessed as reduction in […] SNCA expression at 10 uM measured after 6 hrs by western blot analysis; type: functional, cell-based
N2a [22] = assay: Inhibition of lipid synthesis related gene expression in MPP+-induced mouse N2a cells assessed as reduction in Fasn gene expression measured after 6 hrs by qRT-PCR analysis; type: functional
SH-SY5Y [23] = assay: Neuroprotective activity against SNCA-induced neurotoxicity in human SH-SY5Y cells transfected with adenovirus expressing […] SNCA assessed as reduction in […] SNCA expression at 100 nM measured after 6 hrs by western blot analysis; type: functional, cell-based
[24] = target: T1, Vitamin D3 receptor (Homo sapiens); assay: Antagonist activity at VDR in human HeLa cells assessed as increase in ratio of LC3-II to LC-I at 100 nM in presence or absence of calcitriol measured after 4 hrs by western blot analysis; type: cell-based
SH-SY5Y [25] = assay: Neuroprotective activity against A53T SNCA-induced cytotoxicity in human SH-SY5Y cells assessed as decrease in A53T SNCA induced LDH release at 100 nM by LDH assay; type: functional, cell-based
N2a [26] = assay: Induction of autophagy in MPP+-induced mouse N2a cells infected with pAde-LC3-EGFP- mCherry assessed as formation of mCherry foci by measuring increased in red fluorescence at 500 nM measured after 4 hrs by Hoechst staining based confocal microscope analysis; type: functional, cell-based
SH-SY5Y [27] = assay: Neuroprotective activity against SNCA-induced neurotoxicity in human SH-SY5Y cells transfected with adenovirus expressing […] SNCA assessed as inhibition of mTOR activation at 100 nM measured after 6 hrs by western blot analysis; type: functional, cell-based
[28] = target: T1, Vitamin D3 receptor (Homo sapiens); assay: Antagonist activity at VDR in human HeLa cells assessed as decrease in mTOR phosphorylation at Ser2448 residue at 100 nM in presence or absence of calcitriol measured after 4 hrs by western blot analysis; type: cell-based
[29] = target: T1, Vitamin D3 receptor (Homo sapiens); assay: Antagonist activity at VDR in human HeLa cells assessed as decrease in p62 expression at 100 nM in presence or absence of calcitriol measured after 4 hrs by western blot analysis; type: cell-based; details: filed as antagonist
N2a [30] = assay: Effect on SNCA oligomerization in mouse N2a cells transfected with Syn-luc1 and Syn-luc2 plasmids assessed as reduction in SNCA self-oligomerization by measuring luciferase activity at 100 nM measured after 6 hrs by bioluminescent protein-fragment complementation assay; type: functional, cell-based
SH-SY5Y [31] = assay: Neuroprotective activity against SNCA-induced neurotoxicity in human SH-SY5Y cells transfected with adenovirus expressing […] SNCA assessed as inhibition of p62 expression at 100 nM measured after 6 hrs by western blot analysis; type: functional, cell-based

Chain of Nuclear factor NF-kappa-B complex (Homo sapiens) (P19838 whole entry, looked up): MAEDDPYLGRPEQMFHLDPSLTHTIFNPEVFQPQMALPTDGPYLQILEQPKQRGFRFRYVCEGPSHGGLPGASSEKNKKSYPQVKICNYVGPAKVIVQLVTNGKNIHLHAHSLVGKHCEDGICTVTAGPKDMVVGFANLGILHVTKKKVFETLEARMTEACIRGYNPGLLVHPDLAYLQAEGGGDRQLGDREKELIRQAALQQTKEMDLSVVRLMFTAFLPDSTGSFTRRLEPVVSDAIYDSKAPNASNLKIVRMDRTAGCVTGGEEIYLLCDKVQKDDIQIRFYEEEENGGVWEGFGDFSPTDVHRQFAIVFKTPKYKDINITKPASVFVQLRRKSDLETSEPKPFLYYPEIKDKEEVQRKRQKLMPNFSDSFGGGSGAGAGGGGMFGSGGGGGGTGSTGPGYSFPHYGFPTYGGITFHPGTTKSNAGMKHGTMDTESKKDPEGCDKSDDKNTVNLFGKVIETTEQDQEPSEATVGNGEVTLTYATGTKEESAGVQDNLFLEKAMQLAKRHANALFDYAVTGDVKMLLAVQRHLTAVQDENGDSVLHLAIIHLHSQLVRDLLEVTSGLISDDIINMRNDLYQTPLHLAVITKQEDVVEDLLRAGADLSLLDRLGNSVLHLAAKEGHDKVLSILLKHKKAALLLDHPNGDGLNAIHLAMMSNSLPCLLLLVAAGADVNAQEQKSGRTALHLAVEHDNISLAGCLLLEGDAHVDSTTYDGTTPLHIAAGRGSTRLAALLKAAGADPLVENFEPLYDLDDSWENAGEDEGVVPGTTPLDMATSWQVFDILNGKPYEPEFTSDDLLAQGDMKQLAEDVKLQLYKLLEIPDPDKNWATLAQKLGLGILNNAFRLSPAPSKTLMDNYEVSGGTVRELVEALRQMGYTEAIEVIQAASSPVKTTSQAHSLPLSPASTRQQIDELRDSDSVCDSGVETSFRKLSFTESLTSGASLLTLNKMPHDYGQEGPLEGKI
Chain of Nuclear factor NF-kappa-B complex (Homo sapiens) (Q00653 whole entry, looked up): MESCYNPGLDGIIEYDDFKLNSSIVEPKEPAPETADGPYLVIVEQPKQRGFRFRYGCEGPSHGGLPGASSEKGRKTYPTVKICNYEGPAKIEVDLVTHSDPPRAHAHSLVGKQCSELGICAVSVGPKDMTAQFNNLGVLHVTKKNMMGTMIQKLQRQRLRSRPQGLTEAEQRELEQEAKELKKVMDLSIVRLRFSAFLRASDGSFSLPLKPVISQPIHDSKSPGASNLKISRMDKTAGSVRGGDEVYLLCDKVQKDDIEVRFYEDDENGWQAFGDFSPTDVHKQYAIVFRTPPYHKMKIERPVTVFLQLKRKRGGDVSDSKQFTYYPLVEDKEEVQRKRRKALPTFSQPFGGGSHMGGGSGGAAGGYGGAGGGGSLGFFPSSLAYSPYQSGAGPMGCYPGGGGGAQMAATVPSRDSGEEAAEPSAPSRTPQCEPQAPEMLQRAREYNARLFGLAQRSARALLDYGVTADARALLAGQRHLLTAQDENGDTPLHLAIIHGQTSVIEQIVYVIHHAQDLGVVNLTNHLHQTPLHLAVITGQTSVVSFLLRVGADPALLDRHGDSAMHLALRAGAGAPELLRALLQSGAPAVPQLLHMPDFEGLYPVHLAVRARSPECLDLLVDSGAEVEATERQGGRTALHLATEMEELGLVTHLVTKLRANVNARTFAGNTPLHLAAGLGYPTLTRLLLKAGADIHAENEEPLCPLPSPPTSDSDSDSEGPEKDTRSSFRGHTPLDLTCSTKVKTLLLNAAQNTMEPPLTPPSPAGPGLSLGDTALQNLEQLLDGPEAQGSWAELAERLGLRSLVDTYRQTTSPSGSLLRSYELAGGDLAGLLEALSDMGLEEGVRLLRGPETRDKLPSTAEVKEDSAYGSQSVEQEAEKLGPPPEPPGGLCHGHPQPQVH
Chain of Nuclear factor NF-kappa-B complex (Homo sapiens) (Q04206 whole entry, looked up): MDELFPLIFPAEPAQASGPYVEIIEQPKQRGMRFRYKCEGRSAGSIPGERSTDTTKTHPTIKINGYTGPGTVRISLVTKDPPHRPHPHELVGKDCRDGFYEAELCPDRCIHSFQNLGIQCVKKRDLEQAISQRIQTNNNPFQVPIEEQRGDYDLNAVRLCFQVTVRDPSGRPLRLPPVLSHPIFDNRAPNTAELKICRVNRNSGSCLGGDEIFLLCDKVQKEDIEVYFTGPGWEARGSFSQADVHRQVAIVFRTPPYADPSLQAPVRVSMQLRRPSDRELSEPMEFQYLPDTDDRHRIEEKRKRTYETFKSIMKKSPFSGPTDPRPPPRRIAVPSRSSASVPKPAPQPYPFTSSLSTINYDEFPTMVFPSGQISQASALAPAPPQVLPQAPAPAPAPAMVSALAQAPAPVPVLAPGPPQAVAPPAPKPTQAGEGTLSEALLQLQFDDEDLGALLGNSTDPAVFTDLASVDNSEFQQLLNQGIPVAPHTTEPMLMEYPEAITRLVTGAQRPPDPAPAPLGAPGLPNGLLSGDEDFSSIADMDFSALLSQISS
Chain of Signal transducer and activator of transcription 3 (Homo sapiens) (P40763 whole entry): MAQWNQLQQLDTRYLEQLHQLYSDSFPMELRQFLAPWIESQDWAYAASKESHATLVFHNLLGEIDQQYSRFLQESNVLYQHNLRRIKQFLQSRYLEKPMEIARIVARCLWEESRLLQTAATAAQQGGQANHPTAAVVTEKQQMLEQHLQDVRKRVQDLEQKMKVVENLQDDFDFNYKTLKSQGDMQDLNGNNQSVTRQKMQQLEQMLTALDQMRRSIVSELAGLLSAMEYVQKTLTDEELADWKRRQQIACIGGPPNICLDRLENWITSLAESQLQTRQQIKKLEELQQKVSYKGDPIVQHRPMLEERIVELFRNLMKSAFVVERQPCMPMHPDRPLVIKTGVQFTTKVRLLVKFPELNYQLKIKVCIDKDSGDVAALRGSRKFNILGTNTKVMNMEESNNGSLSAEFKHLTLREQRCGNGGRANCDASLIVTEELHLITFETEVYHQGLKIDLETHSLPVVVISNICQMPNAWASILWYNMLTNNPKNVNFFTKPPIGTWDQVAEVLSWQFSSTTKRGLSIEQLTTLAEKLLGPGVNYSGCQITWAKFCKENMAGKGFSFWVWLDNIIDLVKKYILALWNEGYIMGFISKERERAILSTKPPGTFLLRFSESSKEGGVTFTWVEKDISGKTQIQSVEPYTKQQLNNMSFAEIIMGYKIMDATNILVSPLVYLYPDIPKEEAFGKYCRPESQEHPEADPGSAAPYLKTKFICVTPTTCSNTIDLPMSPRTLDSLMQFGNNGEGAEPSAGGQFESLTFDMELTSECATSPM

Row | Compound | inhibition [1] | inhibition [3] | inhibition ([1]; filed as antagonist) | Activity (HeLa) | further results
1 | C=C1CC[C@@H]2[C@](C)(CO)[C@H](O)CC[C@@]2(C)[C@@H]1C/C=C(/COC(C)=O)[C@@H](COC(C)=O)O[Si](C)(C)C(C)(C)C | – | inactive | Active | Non-Toxic | inhibition ([4]; filed as antagonist): Active; Activity [5]: inactive; Activity [6]: Active
2 | C=C1CC[C@@H]2[C@](C)(CO)[C@H](O)CC[C@@]2(C)[C@@H]1C/C=C1/C(O)OC[C@H]1O[Si](CC)(CC)CC (stereo partly drawn) | inactive | inactive | – | Non-Toxic | –
3 | C=C1CC[C@@H]2[C@](C)(CO)[C@H](O)CC[C@@]2(C)[C@@H]1C/C=C1/C(O)OC[C@H]1O[Si](C)(C)C(C)(C)C (stereo partly drawn) | – | inactive | Active | Non-Toxic | –
4 | C=C1CC[C@@H]2[C@]3(C)COC(C)(C)O[C@@H]3CC[C@@]2(C)[C@@H]1C/C=C(/COC(C)=O)[C@@H](COC(C)=O)O[Si](C)(C)C(C)(C)C | inactive | inactive | – | Non-Toxic | –
5 | C=C1CC[C@@H]2[C@](C)(COC(C)=O)[C@H](O)CC[C@@]2(C)[C@@H]1C/C=C(/COC(C)=O)[C@@H](COC(C)=O)O[Si](C)(C)C(C)(C)C | – | inactive | Active | Non-Toxic | Activity (SH-SY5Y [9]): Active; Activity (N2a [10]): inactive; Activity (N2a [11]): Active; inhibition [4]: inactive; Activity (N2a [12]): Active; Activity (N2a [13]): inactive; Activity (N2a [14]): Active; Activity [6]: Active; Activity (N2a [15]): inactive; Activity (N2a [16]): Active; Activity (N2a [17]): Active; Activity (N2a [18]): inactive; Activity (N2a [19]): Active; inhibition [8]: Active; Activity (N2a [20]): inactive; Activity (SH-SY5Y [21]): Active; Activity (N2a [22]): inactive
6 | C=C1CC[C@@H]2[C@](C)(COC(C)=O)[C@H](OC(C)=O)CC[C@@]2(C)[C@@H]1C/C=C(/COC(C)=O)[C@@H](COC(C)=O)O[Si](C)(C)C(C)(C)C | inactive | inactive | – | Non-Toxic | –
7 | C=C1CC[C@@H]2[C@]3(C)COC(C)(C)O[C@@H]3CC[C@@]2(C)[C@@H]1C/C=C(/C=O)[C@@H](COC(C)=O)O[Si](C)(C)C(C)(C)C | – | inactive | Active | Non-Toxic | inhibition ([4]; filed as antagonist): Active; inhibition [8]: Active
8 | CCC(=O)N1CCN(c2ccc(-n3c(=O)ccc4cnc5ccc(-c6cnc7ccccc7c6)cc5c43)cc2C(F)(F)F)CC1 | – | – | – | – | Activity (SH-SY5Y [23]): Active; Activity (N2a [14]): Active; Activity [24]: inactive; Activity (SH-SY5Y [25]): Active; Activity (N2a [26]): Active; inhibition (SH-SY5Y [27]): Active; Activity [28]: inactive; Activity [29]: Active; Activity (N2a [30]): Active; inhibition (SH-SY5Y [31]): Active
9 | C=C1CC[C@@H]2[C@]3(C)COC(C)(C)O[C@@H]3CC[C@@]2(C)[C@@H]1C/C=C(/CO)[C@@H](CO)O[Si](C)(C)C(C)(C)C | inactive | inactive | – | Non-Toxic | inhibition [7]: inactive

Now from value to molecule, other results behind:

Row | inhibition [1] | inhibition [3] | inhibition ([1]; filed as antagonist) | Compound | Activity (HeLa) | further results
10 | inactive | inactive | – | C=C1CC[C@@H]2[C@]3(C)COC(C)(C)O[C@@H]3CC[C@@]2(C)[C@@H]1C/C=C1/C(=O)OC[C@H]1O[Si](CC)(CC)CC | Non-Toxic | Activity [2]: Active
11 | – | inactive | Active | C=C1CC[C@@H]2[C@]3(C)COC(C)(C)O[C@@H]3CC[C@@]2(C)[C@@H]1C/C=C(/CO)[C@@H](CO)O[Si](CC)(CC)CC | Non-Toxic | inhibition [7]: Active
12 | – | inactive | Active | C=C1CC[C@@H]2[C@]3(C)COC(C)(C)O[C@@H]3CC[C@@]2(C)[C@@H]1C/C=C1/C(O)OC[C@H]1O[Si](CC)(CC)CC (stereo partly drawn) | Non-Toxic | inhibition ([4]; filed as antagonist): Active; Activity [6]: Active; inhibition [8]: Active
13 | inactive | inactive | – | C=C1CC[C@@H]2[C@]3(C)COC(C)(C)O[C@@H]3CC[C@@]2(C)[C@@H]1C/C=C1/C(=O)OC[C@H]1O[Si](C)(C)C(C)(C)C | Non-Toxic | –
14 | inactive | inactive | – | C=C1CC[C@@H]2[C@]3(C)COC(C)(C)O[C@@H]3CC[C@@]2(C)[C@@H]1C/C=C1/C(O)OC[C@H]1O[Si](C)(C)C(C)(C)C (stereo partly drawn) | Non-Toxic | inhibition [7]: inactive
